Data reported in patent US12076301B2, “Engaging the cervical spinal cord circuitry to re-enable volitional control of hand function in tetraplegic subjects” (The Regents of the University of California, priority 2013, dated 2024).

Test system: subjects with a chronic motor complete cervical injury
Experiment: Maximal handgrip strength (handgrip force measurement device) in tetraplegic subjects during pcEmc with oral buspirone
Format: in vivo, human
Protocol: Six subjects with chronic (18-36 months) spinal cord injury (SCI, traumatic cervical injury, ASIA B with no motor strength below the injury) were tested to determine if hand function can be improved by neuromodulating the cervical spinal cord. All subjects initially had minimal hand strength, a condition reflecting the majority of cervical SCI patients. Our experimental approach began with 6 weeks of baseline testing (Phase 1), followed by three 2-week treatment periods (Phases 2-4), and then by a period of approximately three months without any treatment at the end of which there was a final 2-week testing period (Phase 5). pcEmc at the C5 spinal segment (Phase 2) increased hand strength in 4/6 subjects compared to baseline Phase 1 (FIG. 1, panels A-G). […]
Voluntary motor control data were assessed using a handgrip force measurement device. […] The number of completed contraction-release sequences across the lines was determined. […] The percentage of data points that fell inside a circular window at a sampling of 15 Hz was determined. […]
The transcutaneous stimulation device is non-invasive. […] Varying combinations of these stimulation parameters were systematically assessed to obtain optimum facilitation of voluntary hand contraction by identification of the relative activation levels of the motor pools studied (data not shown). […]

## O=C1CC2(CCCC2)CC(=O)N1CCCCN1CCN(c2ncccn2)CC1 [buspirone]
After pcEmc plus fEmc (buspirone) treatment, 6 subjects, 7.5 mg buspirone twice daily for 2 weeks, oral
  Mean hand strength increase: greater than 300%
During buspirone treatment (Phase 3) with pcEmc at C5, number of subjects out of 6
  Subjects with increased hand strength compared to Phase 1 and 2: 4/6
